The molecules below were run against T1, Recombinant human renin (Homo sapiens, UniProt P00797) (assay: In vitro enzymatic activity assay of renin inhibitors (fluorogenic peptide substrate)). Settings: read-out: IC50 of Exemplified Compounds Against Renin.
T1 construct: isolate the active form (residues 67-406); made in house; host or cells: FreeStyle 293-F cells (transient expression of pcDNA3.1(+)/hREN)
T1 sequence (P00797 67-406): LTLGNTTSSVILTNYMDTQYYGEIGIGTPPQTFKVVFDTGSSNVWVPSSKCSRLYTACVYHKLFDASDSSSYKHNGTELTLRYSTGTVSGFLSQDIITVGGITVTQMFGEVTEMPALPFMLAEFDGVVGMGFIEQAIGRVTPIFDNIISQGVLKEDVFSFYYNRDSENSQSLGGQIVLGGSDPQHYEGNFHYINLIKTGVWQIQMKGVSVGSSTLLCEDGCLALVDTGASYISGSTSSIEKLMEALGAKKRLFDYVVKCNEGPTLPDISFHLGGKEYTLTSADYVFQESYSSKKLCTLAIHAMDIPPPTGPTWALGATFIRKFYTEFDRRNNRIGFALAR
Format: biochemical
How it was run: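 Enzyme: recombinant human renin, 3 nM final, 10 min compound pre-incubation at 37 °C; buffer 50 mM Hepes pH 7.4 with 0.1 mg/mL BSA or extra 2% BSA; 5% DMSO.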

Row | IC50 | SMILES
1 | 100 to 1000 nM | COCCCn1c([C@@H]2CCCN(C(=O)[C@@H]3CN(S(=O)(=O)c4cc(Cl)ccc4Cl)C[C@H]3N)C2)nc2ccccc21 [Compound 343, ((3R,4S)-4-amino-1-(2,5-dichlorophenylsulfonyl)pyrrolidin-3-yl)((R)-3-(1-(3-methoxypropyl)-1H-benzo[d]imidazol-2-yl)piperidin-1-yl)methanone]
2 | 100 to 1000 nM | CC(=O)NCCn1c([C@@H]2CCCN(C(=O)C[C@H](N)Cc3ccc(-c4ccc5c(c4)OCCO5)cc3)C2)nc2c(C)cccc21 [Compound 477, N-(2-(2-((R)-1-((R)-3-amino-4-(4-(2,3-dihydrobenzo[b][1,4]dioxin-6-yl)phenyl)butanoyl)piperidin-3-yl)-4-methyl-1H-benzo[d]imidazol-1-yl)ethyl)acetamide]
3 | > 1000 nM | N[C@@H](CC(=O)N1CCCC(c2nc3ccccc3[nH]2)C1)Cc1ccc([N+](=O)[O-])cc1 (stereo partly drawn) [Compound 39, (3R)-1-(3-(1H-benzo[d]imidazol-2-yl)piperidin-1-yl)-3-amino-4-(4-nitrophenyl)butan-1-one]
4 | < 100 nM | COCCCn1c([C@@H]2CCCN(C(=O)C[C@H](N)Cc3ccc(-c4ccc5c(c4)SCC(=O)N5)cc3)C2)nc2c(C)cccc21 [Compound 496, 7-(4-((R)-2-amino-4-((R)-3-(1-(3-methoxypropyl)-4-methyl-1H-benzo[d]imidazol-2-yl)piperidin-1-yl)-4-oxobutyl)phenyl)-2H-benzo[b][1,4]thiazin-3(4H)-one]
5 | > 1000 nM | COCCCn1c([C@@H]2CCCN(C(=O)[C@@H]3CN(S(=O)(=O)c4ccc5c(c4)OCCO5)C[C@H]3N)C2)nc2ccccc21 [Compound 337, ((3R,4S)-4-amino-1-(2,3-dihydrobenzo[b][1,4]dioxin-6-ylsulfony)pyrrolidin-3-yl)((R)-3-(1-(3-methoxypropyl)-1H-benzo[d]imidazol-2-yl)piperidin-1-yl)methanone]
6 | > 1000 nM | N[C@@H](CC(=O)N1CCCC(c2nc3ccccc3[nH]2)C1)c1ccccc1[N+](=O)[O-] (stereo partly drawn) [Compound 26, (3S)-1-(3-(1H-benzo[d]imidazol-2-yl)piperidin-1-yl)-3-amino-3-(2-nitrophenyl)propan-1-one]
7 | < 100 nM | COCCCn1c([C@@H]2CCCN(C(=O)C[C@H](N)Cc3ccc(-c4ccc[nH]4)cc3)C2)nc2ccccc21 [Compound 153, (R)-4-(4-(1H-pyrrol-2-yl)phenyl)-3-amino-1-((R)-3-(1-(3-methoxypropyl)-1H-benzo[d]imidazol-2-yl)piperidin-1-yl)butan-1-one]
8 | < 100 nM | COCCCn1c([C@@H]2CCCN(C(=O)C[C@H](N)Cc3ccc(-c4ccc5[nH]nc(N)c5c4)cc3)C2)nc2c(C)cccc21 [Compound 500, (R)-3-amino-4-(4-(3-amino-1H-indazol-5-yl)phenyl)-1-((R)-3-(1-(3-methoxypropyl)-4-methyl-1H-benzo[d]imidazol-2-yl)piperidin-1-yl)butan-1-one]
9 | 100 to 1000 nM | COCCCn1c([C@@H]2CCCN(C(=O)C[C@H](N)Cc3ccc4ccccc4c3)C2)nc2c(OC)cccc21 [Compound 104, (R)-3-amino-1((R)-3-(4-methoxy-1-(3-methoxypropyl)-1H-benzo[d]imidazol-2-yl)piperidin-1-yl)-4-(naphthalen-2-yl)butan-1-one]
10 | > 1000 nM | COCCCn1c([C@@H]2CCCN(C(=O)[C@@H]3CN(C(=O)c4cccc(OC)c4)C[C@H]3N)C2)nc2ccccc21 [Compound 421, ((3R,4S)-4-amino-1-(3-methoxybenzoyl)pyrrolidin-3-yl)((R)-3-(1-(3-methoxypropyl)-1H-benzo[d]imidazol-2-yl)piperidin-1-yl)methanone]
11 | > 1000 nM | COCCCn1c([C@@H]2CCCN(C(=O)[C@@H]3CN(C(=O)c4ccc(OC)cc4)C[C@H]3N)C2)nc2ccccc21 [Compound 394, ((3R,4S)-4-amino-1-(4-methoxybenzoyl)pyrrolidin-3-yl)((R)-3-(1-(3-methoxypropyl)-1H-benzo[d]imidazol-2-yl)piperidin-1-yl)methanone]
12 | 100 to 1000 nM | CC(=O)NCCn1c([C@@H]2CCCN(C(=O)C[C@H](N)Cc3ccc(-c4ccc5c(c4)OCCN5C)cc3)C2)nc2c(C)cccc21 [Compound 475, N-(2-(2-((R)-1-((R)-3-amino-4-(4-(4-methyl-3,4-dihydro-2H-benzo[b][1,4]oxazin-7-yl)phenyl)butanoyl)piperidin-3-yl)-4-methyl-1H-benzo[d]imidazol-1-yl)ethyl)acetamide]
13 | < 100 nM | CCNC(=O)Nc1ccc(-c2ccc(C[C@@H](N)CC(=O)N3CCC[C@@H](c4nc5ccccc5n4CCCOC)C3)cc2)cc1 [Compound 173, 1-(4′-((R)-2-amino-4-((R)-3-(1-(3-methoxypropyl)-1H-benzo[d]imidazol-2-yl)piperidin-1-yl)-4-oxobutyl)biphenyl-4-yl)-3-ethylurea]
14 | > 1000 nM | COC(=O)[C@H](Cc1ccccc1)NC(=O)N1CCCC(c2nc3ccccc3[nH]2)C1 (stereo partly drawn) [Compound 12, (2S)-methyl 2-(3-(1H-benzo[d]imidazol-2-yl)piperidine-1-carboxamido)-3-phenylpropanoate]
15 | 100 to 1000 nM | COCCCn1c([C@@H]2CCCN(C(=O)[C@@H]3CN(S(=O)(=O)c4ccc(C(C)(C)C)cc4)C[C@H]3N)C2)nc2ccccc21 [Compound 374, ((3R,4S)-4-amino-1-(4-tert-butylphenylsulfonyl)pyrrolidin-3-yl)((R)-3-(1-(3-methoxypropyl)-1H-benzo[d]imidazol-2-yl)piperidin-1-yl)methanone]
16 | 100 to 1000 nM | COCCCn1c([C@@H]2CCCN(C(=O)C[C@H](N)CNS(=O)(=O)c3cccc(OC)c3)C2)nc2ccccc21 [Compound 315, N-((S)-2-amino-4-((R)-3-(1-(3-methoxypropyl)-1H-benzo[d]imidazol-2-yl)piperidin-1-yl)-4-oxobutyl)-3-methoxybenzenesulfonamide]
17 | 100 to 1000 nM | CC(=O)NCCn1c([C@@H]2CCCN(C(=O)C[C@H](N)Cc3ccc(-c4cnc(N)nc4)cc3)C2)nc2c(Cl)cccc21 [Compound 470, N-(2-(2-((R)-1-((R)-3-amino-4-(4-(2-aminopyrimidin-5-yl)phenyl)butanoyl)piperidin-3-yl)-4-chloro-1H-benzo[d]imidazol-1-yl)ethyl)acetamide]
18 | 100 to 1000 nM | COCCCn1c([C@@H]2CCCN(C(=O)[C@@H]3CN(S(=O)(=O)c4ccc5c(c4)CCO5)C[C@H]3N)C2)nc2ccccc21 [Compound 355, ((3R,4S)-4-amino-1-(2,3-dihydrobenzofuran-5-ylsulfonyl)pyrrolidin-3-y1)((R)-3-(1-(3-methoxypropyl)-1H-benzo[d]imidazol-2-yl)piperidin-1-yl)methanone]
19 | > 1000 nM | COCCCn1c([C@@H]2CCCN(C(=O)C[C@H](N)Cc3ccc4ccccc4c3)C2)nc2ccc(Cl)nc21 [Compound 502, (3R)-3-amino-1-(3-(5-chloro-3-(3-methoxypropyl)-3H-imidazo[4,5-b]pyridin-2-yl)piperidin-1-yl)-4-(naphthalen-2-yl)butan-1-one]
20 | < 100 nM | COCCCn1c([C@@H]2CCCN(C(=O)C[C@H](N)Cc3ccc4ccccc4c3)C2)nc2c(C)cccc21 [Compound 106, (R)-3-Amino-1-((R)-3-(1-(3-methoxypropyl)-4-methyl-1H-benzo[d]imidazol-2-yl)piperidin-1-yl)-4-(naphthalen-2-yl)butan-1-one]
21 | < 100 nM | COCCCn1c([C@@H]2CCCN(C(=O)C[C@H](N)Cc3ccc(-c4ccoc4)cc3)C2)nc2ccccc21 [Compound 145, (R)-3-amino-4-(4-(furan-3-yl)phenyl)-1-((R)-3-(1-(3-methoxypropyl)-1H-benzo[d]imidazol-2-yl)piperidin-1-yl)butan-1-one]
22 | < 100 nM | COCCCn1c([C@@H]2CCCN(C(=O)C[C@H](N)CNC(=O)c3ccc(-c4cccs4)cc3)C2)nc2ccccc21 [Compound 259, N-((S)-2-amino-4-((R)-3-(1-(3-methoxypropyl)-1H-benzo[d]imidazol-2-yl)piperidin-1-yl)-4-oxobutyl)-4-(thiophen-2-yl)benzamide]
23 | 100 to 1000 nM | COCCCn1c([C@@H]2CCCN(C(=O)C[C@H](N)Cc3ccc4ccccc4c3)C2)nc2cc(Cl)c(Cl)cc21 [Compound 81, (R)-3-amino-1((R)-3-(5,6-dichloro-1-(3-methoxypropyl)-1H-benzo[d]imidazol-2-yl)piperidin-1-yl)-4-(naphthalen-2-yl)butan-1-one]
24 | 100 to 1000 nM | COCCCn1c([C@@H]2CCCN(C(=O)[C@@H]3CN(S(=O)(=O)c4cccc(F)c4)C[C@H]3N)C2)nc2ccccc21 [Compound 428, ((3R,4S)-4-amino-1-(3-fluorophenylsulfonyl)pyrrolidin-3-yl)((R)-3-(1-(3-methoxypropyl)-1H-benzo[d]imidazol-2-yl)piperidin-1-yl)methanone]
25 | < 100 nM | COCCCn1c([C@@H]2CCCN(C(=O)C[C@H](N)Cc3ccc(-c4ccc(C(=O)NCCO)c(F)c4)cc3)C2)nc2ccccc21 [Compound 190, 4′-((R)-2-amino-4-((R)-3-(1-(3-methoxypropyl)-1H-benzo[d]imidazol-2-yl)piperidin-1-yl)-4-oxobutyl)-3-fluoro-N-(2-hydroxyethyl)biphenyl-4-carboxamide]
26 | < 100 nM | COCCCn1c([C@@H]2CCCN(C(=O)C[C@H](N)Cc3ccc(-c4ccc5c(c4)CC(=O)N5)cc3)C2)nc2c(F)cccc21 [Compound 458, 5-(4-((R)-2-amino-4-((R)-3-(4-fluoro-1-(3-methoxypropyl)-1H-benzo[d]imidazol-2-yl)piperidin-1-yl)-4-oxobutyl)phenyl)indolin-2-one]

From US8138168B1 (Takeda Pharmaceutical Company Limited, priority 2007, dated 2012)
